Source: patent US9029553B2, “2-anilino nicotinyl linked 2-amino benzothiazole conjugates and process for the preparation thereof” (Council of Scientific & Industrial Research, priority 2011, dated 2015)

Tests used:
502713 = experiment: SRB percentage growth inhibition (NCI protocol); assay type: cell-based; details: Homo sapiens, 48 hrs exposure
Method: (§1) 2-Anilino nicotinyl linked 2-amino benzothiazoles conjugates of formula 4-8 have been tested against ten and eleven human cancer cell lines for 10 and 1 μM respectively derived from nine cancer types (leukemia, non-small cell lung cancer, colon cancer, CNS cancer, melanoma, ovarian cancer, renal cancer, prostate cancer and breast cancer) as per NCI protocol. For each compound, percentage of growth inhibition was calculated for individual cell lines at a minimum of two concentrations (1 and 10 μM). A protocol of 48 hrs continuous drug exposure was used, and a sulforhodamine B (SRB) protein assay was used to estimate cell viability or growth. The percentage of growth inhibition compared with the control was calculated in table 1 and table 2.

A549 = experiment: SRB percentage growth inhibition (NCI protocol); assay type: cell-based; details: Homo sapiens, 48 hrs exposure
Method: as §1

DU145 = experiment: SRB percentage growth inhibition (NCI protocol); assay type: cell-based; details: Homo sapiens, DU-145, 48 hrs exposure
Method: as §1

HCT-15 [1] = experiment: SRB percentage growth inhibition (NCI protocol); assay type: cell-based; details: Homo sapiens, 48 hrs exposure
Method: as §1

HEP-2 = experiment: SRB percentage growth inhibition (NCI protocol); assay type: cell-based; details: Homo sapiens, 48 hrs exposure
Method: as §1

Hela [2] = experiment: SRB percentage growth inhibition (NCI protocol); assay type: cell-based; details: Homo sapiens, 48 hrs exposure
Method: as §1

IGR-OV-1 = experiment: SRB percentage growth inhibition (NCI protocol); assay type: cell-based; details: Homo sapiens, IGROV-1, 48 hrs exposure
Method: as §1

IMR-32 = experiment: SRB percentage growth inhibition (NCI protocol); assay type: cell-based; details: Homo sapiens, 48 hrs exposure
Method: as §1

MCF-7 [3] = experiment: SRB percentage growth inhibition (NCI protocol); assay type: cell-based; details: Homo sapiens, MCF7, 48 hrs exposure
Method: as §1

OVCAR-5 = experiment: SRB percentage growth inhibition (NCI protocol); assay type: cell-based; details: Homo sapiens, 48 hrs exposure
Method: as §1

PC-3 = experiment: SRB percentage growth inhibition (NCI protocol); assay type: cell-based; details: Homo sapiens, 48 hrs exposure
Method: as §1

SK-NS-H = experiment: SRB percentage growth inhibition (NCI protocol); assay type: cell-based; details: Homo sapiens, SK-N-SH, 48 hrs exposure
Method: as §1

SiHa [4] = experiment: SRB percentage growth inhibition (NCI protocol); assay type: cell-based; details: Homo sapiens, 48 hrs exposure
Method: as §1

Sw-620 = experiment: SRB percentage growth inhibition (NCI protocol); assay type: cell-based; details: Homo sapiens, 48 hrs exposure
Method: as §1

HCT-15 [5] = experiment: MTT inhibition of cell proliferation; assay type: cell-based; details: Homo sapiens, 48 h
Text: (§2) In order to determine the mode of action of cell death in cancer cells, first we explored the cytotoxic potential of different structural analogs of benzothiazoles on different human cancer cell lines. […] These compounds have limited or no cytotoxicity to cervical cancer SiHa, HeLa cells, breast cancer MCF-7 cells and colon cancer HCT-15 cells.

HL-60 = experiment: MTT inhibition of cell proliferation; assay type: cell-based; details: Homo sapiens, 48 h
Text: as §2

Hela [6] = experiment: MTT inhibition of cell proliferation; assay type: cell-based; details: Homo sapiens, 48 h
Text: as §2

MCF-7 [7] = experiment: MTT inhibition of cell proliferation; assay type: cell-based; details: Homo sapiens, MCF7, 48 h
Text: as §2

SiHa [8] = experiment: MTT inhibition of cell proliferation; assay type: cell-based; details: Homo sapiens, 48 h
Text: as §2

[9] = tested on: normal monkey kidney CV-1 cells; experiment: MTT cytotoxicity in normal cells; assay type: cell-based; details: Primates
Method: These compounds were also evaluated for their cytotoxic potential in normal cells and for these purpose their IC50 value were also determine in normal monkey kidney CV-1 cells by using MTT method. The ratios of normal to cancer cells IC50 value were ranges from 10-1000 times (Table 5).

HL-60 cells = experiment: Flow cytometric analysis of reactive oxygen species (DCFH-DA); assay type: cell-based, human; details: 1 μM; for increase in DCF positive cell population (ROS): 24 h, HL-60, compared to control
Method: It was clear that these compounds were cytotoxic and induce apoptosis in HL-60 cells, now we have to found out the early events which were responsible for the induction of apoptosis like reactive oxygen species (ROS) or nitric oxide (NO) generation. Intracellular peroxide (ROS) in the cells was measured by DCFH-DA by using flow cytometry. Cells were incubated with tested compounds at 1 μM for 24 h in HL-60 cells and analyzed by flow cytometry after double staining with DCFH-DA (FIG. 7). Cells were analyzed for fluorescence intensity in FL1 vs. cell count. There was hardly any DCF fluorescence (ROS positive cells) in the untreated HL-60 cells, and this status remained unchanged when cells were incubated for 24 hr with compounds 7 and 8. […] Compounds 4 and 6 also induce the generation of peroxide in HL-60 cells (31 and 16% increase, respectively).

topoisomerase II = experiment: DNA topoisomerase-II inhibition assay; assay type: biochemical; details: 1 μM; etoposide 100 μM
Text: DNA topoisomerases are nuclear enzymes capable of resolving the topology of DNA to allow its replication. So, proper relaxing is very important for successful replication cycle and thus for the cell survival. However, topoisomerases also serve as targets in the anticancer chemotherapy in which cell death serves an important purpose. Moreover, the topoisomerase targeting drugs can either be classified either topo posions, which act by stabilizing enzyme DNA cleavable complexes leading to DNA break or topo catalytic inhibitors, which act by stabilizing enzyme where both DNA strands remain intact and no DNA breaks occur. Importantly, all the topoisomerase inhibitors finally induce apoptosis. In the present study, all the five compounds 4-8 were first subjected to topoisomerase II inhibition assay.

[10] = tested on: Ehrlich Ascites Carcinoma (EAC); experiment: In vivo anticancer activity, Ehrlich ascites carcinoma; set-up: species or system Swiss mice; details: for No. of deaths / toxicity to animals: EAC mice
Method: Model: Ehrlich Ascites Carcinoma (EAC)
Ehrlich ascites carcinoma (EAC) cells were collected from the peritoneal cavity of the swiss mice harbouring 8-10 days old ascitic tumor. 1×10^7 EAC cells were injected intraperitoneally in Swiss mice selected for the experiment on day 0. The next day, animals were randomized and divided into different groups. The treatment groups contained 7 animals each and control group contained 10 animals. Treatment groups were treated with different doses of test substances intraperitoneally from day 1-9. One of the treatment group received 5-fluorouracil (20 mg/kg, i.p) and it served as positive control. The tumor bearing control group was similarly administered normal saline (0.2 ml, i.p.). On day 12, animals were sacrificed and ascitic fluid was collected from peritoneal cavity of each mouse for the evaluation of tumor growth. Percent tumor growth inhibition was calculated based on the total number of tumor cells present in the peritoneal cavity as on day 12 of the experiment using the following formula.

## O=C(Nc1nc2ccc([N+](=O)[O-])cc2s1)c1cccnc1Nc1ccccc1 [Compound 4, N-3-(6-Nitro-1,3-benzothiazol-2-yl)-2-(phenylamino)-3-pyridinecarboxamide]
502713
  inhibition at 10 µM: 63%
A549
  inhibition at 1 µM: 23%
  inhibition at 10 µM: 31%
DU145
  inhibition at 1 µM: 35%
  inhibition at 10 µM: 52%
HCT-15 [1]
  inhibition at 1 µM: 6%
  inhibition at 10 µM: 66%
HEP-2
  inhibition at 1 µM: 50%
  inhibition at 10 µM: 26%
Hela [2]
  inhibition at 1 µM: 9%
IGR-OV-1
  inhibition at 1 µM: 29%
IMR-32
  inhibition at 1 µM: 35%
  inhibition at 10 µM: 45%
MCF-7 [3]
  inhibition at 1 µM: 44%
OVCAR-5
  inhibition at 1 µM: 29%
  inhibition at 10 µM: 50%
PC-3
  inhibition at 1 µM: 22%
SK-NS-H
  inhibition at 10 µM: 48%
SiHa [4]
  inhibition at 10 µM: 53%
Sw-620
  inhibition at 1 µM: 9%
  inhibition at 10 µM: 65%
HCT-15 [5]
  IC50: > 100 µM
HL-60
  IC50: 580 nM
Hela [6]
  IC50: > 100 µM
MCF-7 [7]
  IC50: > 100 µM
SiHa [8]
  IC50: 28 µM
[9]
  IC50: 70 µM
HL-60 cells
  increase in DCF positive cell population (ROS): 31%
Topoisomerase II
  topoisomerase-II inhibition (DNA relaxation): more potent effect relative to etoposide
[10]; 10 mg/Kg i.p. day 1-9, read day 12
  Growth Inhibition (%): 42.21%
[10]; 10 mg/Kg i.p.
  No. of deaths / toxicity to animals: 2
[10]; 10 mg/Kg i.p., listed as Comp 4
  No. of deaths / toxicity to animals: 2/7
[10]; 50 mg/Kg i.p. day 1-9, read day 12
  Growth Inhibition (%): Intolerable
[10]; 50 mg/Kg i.p.
  No. of deaths / toxicity to animals: toxic
[10]; 50 mg/Kg i.p., listed as Comp 4
  No. of deaths / toxicity to animals: 7/7

## COc1ccc(Nc2ncccc2C(=O)Nc2nc3ccc([N+](=O)[O-])cc3s2)cc1 [Compound 5, N3-(6-nitro-1,3-benzothiazol-2-yl)-2-(4-methoxyanilino)nicotinamide]
502713
  inhibition at 10 µM: 59%
A549
  inhibition at 1 µM: 27%
  inhibition at 10 µM: 3%
DU145
  inhibition at 1 µM: 53%
  inhibition at 10 µM: 32%
HCT-15 [1]
  inhibition at 1 µM: 9%
  inhibition at 10 µM: 47%
HEP-2
  inhibition at 1 µM: 38%
  inhibition at 10 µM: 5%
Hela [2]
  inhibition at 1 µM: 7%
IGR-OV-1
  inhibition at 1 µM: 27%
IMR-32
  inhibition at 1 µM: 53%
  inhibition at 10 µM: 55%
MCF-7 [3]
  inhibition at 1 µM: 25%
OVCAR-5
  inhibition at 1 µM: 31%
  inhibition at 10 µM: 52%
PC-3
  inhibition at 1 µM: 21%
SK-NS-H
  inhibition at 10 µM: 64%
SiHa [4]
  inhibition at 10 µM: 66%
Sw-620
  inhibition at 1 µM: 15%
  inhibition at 10 µM: 64%
HCT-15 [5]
  IC50: > 100 µM
HL-60
  IC50: 700 nM
Hela [6]
  IC50: > 100 µM
MCF-7 [7]
  IC50: > 100 µM
SiHa [8]
  IC50: 28 µM
[9]
  IC50: 10 µM
HL-60 cells
  increase in DCF positive cell population (ROS): ~44%
Topoisomerase II
  topoisomerase-II inhibition (DNA relaxation): more potent effect relative to etoposide
[10]; 5 mg/Kg i.p. day 1-9, read day 12
  Growth Inhibition (%): 20.90%
[10]; 5 mg/Kg i.p.
  No. of deaths / toxicity to animals: 0/7
[10]; 30 mg/Kg i.p. day 1-9, read day 12
  Growth Inhibition (%): Intolerable
[10]; 30 mg/Kg i.p.
  No. of deaths / toxicity to animals: toxic
[10]; 30 mg/Kg i.p., listed as Comp 5
  No. of deaths / toxicity to animals: 7/7

## O=c1[nH]cc(F)c(=O)[nH]1 [Compound 5-FU, 5-fluorouracil, reference compound]
502713
  inhibition at 10 µM: 21%
HCT-15 [1]
  inhibition at 1 µM: 46%
  inhibition at 10 µM: 44%
IMR-32
  inhibition at 10 µM: 71%
OVCAR-5
  inhibition at 10 µM: 22%
SK-NS-H
  inhibition at 10 µM: 7%
SiHa [4]
  inhibition at 10 µM: 44%
Sw-620
  inhibition at 1 µM: 44%
  inhibition at 10 µM: 76%

## O=C(Nc1nc2ccc([N+](=O)[O-])cc2s1)c1cccnc1Nc1ccc(Cl)cc1Cl [Compound 7]
502713
  inhibition at 10 µM: 2%
A549
  inhibition at 1 µM: 15%
  inhibition at 10 µM: 19%
DU145
  inhibition at 1 µM: 36%
  inhibition at 10 µM: 39%
HCT-15 [1]
  inhibition at 1 µM: 4%
  inhibition at 10 µM: 75%
HEP-2
  inhibition at 1 µM: 46%
  inhibition at 10 µM: 14%
Hela [2]
  inhibition at 1 µM: 0%
IGR-OV-1
  inhibition at 1 µM: 24%
IMR-32
  inhibition at 1 µM: 42%
  inhibition at 10 µM: 48%
MCF-7 [3]
  inhibition at 1 µM: 80%
OVCAR-5
  inhibition at 1 µM: 19%
  inhibition at 10 µM: 0%
PC-3
  inhibition at 1 µM: 27%
SK-NS-H
  inhibition at 10 µM: 50%
SiHa [4]
  inhibition at 10 µM: 35%
Sw-620
  inhibition at 1 µM: 12%
  inhibition at 10 µM: 61%
HCT-15 [5]
  IC50: > 100 µM
HL-60
  IC50: 400 nM
Hela [6]
  IC50: > 100 µM
MCF-7 [7]
  IC50: > 100 µM
SiHa [8]
  IC50: > 50 µM
[9]
  IC50: 0.8 µM
HL-60 cells; 24 hr, HL-60
  DCF fluorescence (ROS positive cells), in words: unchanged
Topoisomerase II
  topoisomerase-II inhibition (DNA relaxation): more potent effect relative to etoposide
[10]; 20 mg/Kg i.p. day 1-9, read day 12
  Growth Inhibition (%): 63.89%
[10]; 20 mg/Kg i.p.
  No. of deaths / toxicity to animals: without any deaths
[10]; 20 mg/Kg i.p., listed as Comp 7
  No. of deaths / toxicity to animals: 0/7
[10]; 40 mg/Kg i.p. day 1-9, read day 12
  Growth Inhibition (%): Intolerable
[10]; 40 mg/Kg i.p.
  No. of deaths / toxicity to animals: 7/7

## CC(=O)O[C@H]1C(=O)[C@@]2(C)[C@H]([C@H](OC(=O)c3ccccc3)[C@]3(O)C[C@H](OC(=O)[C@H](O)[C@@H](NC(=O)c4ccccc4)c4ccccc4)C(C)=C1C3(C)C)[C@]1(OC(C)=O)CO[C@@H]1C[C@@H]2O [Pac, paclitaxel, reference compound]
502713
  inhibition at 10 µM: 59%
A549
  inhibition at 1 µM: 34%
  inhibition at 10 µM: 41%
DU145
  inhibition at 1 µM: 44%
  inhibition at 10 µM: 42%
HCT-15 [1]
  inhibition at 10 µM: 37%
IMR-32
  inhibition at 10 µM: 46%
OVCAR-5
  inhibition at 10 µM: 51%
SK-NS-H
  inhibition at 10 µM: 20%
SiHa [4]
  inhibition at 10 µM: 49%
Sw-620
  inhibition at 10 µM: 73%
